The nature of series [1]: The drug is tested on Z-021 corresponding to metagenome with ENA study accession number: PRJEB37062 and ENA sample accession number: ERS12561820 for biotransformation under anaerobic condition. The drug concentrations were measured over 9 timepoints collected between 0 and 24 hours of incubation by liquid-chromatography-coupled mass spectrometry (LC–MS). Conditions: 2 µM.

Series [2] is described as follows: The drug is tested on Z-019 corresponding to rat gut metagenome with ENA study accession number: PRJEB37062 and ENA sample accession number: ERS12561818 for biotransformation under anaerobic condition. The drug concentrations were measured over 9 timepoints collected between 0 and 24 hours of incubation by liquid-chromatography-coupled mass spectrometry (LC–MS). Conditions: 2 µM.

For series [3] the following is noted: human gut metagenome, 24 h, 2 µM.
Series [4] can be described thus: The drug is tested on WLS-350 corresponding to human gut metagenome with ENA study accession number: PRJEB37062 and ENA sample accession number: ERS12561789 for biotransformation under anaerobic condition. The drug concentrations were measured over 9 timepoints collected between 0 and 24 hours of incubation by liquid-chromatography-coupled mass spectrometry (LC–MS). Conditions: 2 µM.

Series [5] can be described thus: The drug is tested on Z-017 corresponding to mouse gut metagenome with ENA study accession number: PRJEB37062 and ENA sample accession number: ERS12561816 for biotransformation under anaerobic condition. The drug concentrations were measured over 9 timepoints collected between 0 and 24 hours of incubation by liquid-chromatography-coupled mass spectrometry (LC–MS). Conditions: 2 µM.

For series [6] the following is noted: human gut metagenome, 24 h, 2 µM. This is another data set of the same source.
For series [7] the following is noted: human gut metagenome, 24 h, 2 µM. The source holds these as a separate data set.
The nature of series [8]: The drug is tested on Z-018 corresponding to pig gut metagenome with ENA study accession number: PRJEB37062 and ENA sample accession number: ERS12561817 for biotransformation under anaerobic condition. The drug concentrations were measured over 9 timepoints collected between 0 and 24 hours of incubation by liquid-chromatography-coupled mass spectrometry (LC–MS). Conditions: 2 µM.

A short description of series [9]: The drug is tested on Z-001 corresponding to mouse gut metagenome with ENA study accession number: PRJEB37062 and ENA sample accession number: ERS12561801 for biotransformation under anaerobic condition. The drug concentrations were measured over 9 timepoints collected between 0 and 24 hours of incubation by liquid-chromatography-coupled mass spectrometry (LC–MS). Conditions: 2 µM.

A short description of series [10]: The drug is tested on WLS-039 corresponding to human gut metagenome with ENA study accession number: PRJEB37062 and ENA sample accession number: ERS12561746 for biotransformation under anaerobic condition. The drug concentrations were measured over 9 timepoints collected between 0 and 24 hours of incubation by liquid-chromatography-coupled mass spectrometry (LC–MS). Conditions: 2 µM.

The conditions of series [11]: human gut metagenome, 24 h, 2 µM. The source holds these as a separate data set.
The nature of series [12]: The drug is tested on Z-020 corresponding to rabbit gut metagenome with ENA study accession number: PRJEB37062 and ENA sample accession number: ERS12561819 for biotransformation under anaerobic condition. The drug concentrations were measured over 9 timepoints collected between 0 and 24 hours of incubation by liquid-chromatography-coupled mass spectrometry (LC–MS). Conditions: 2 µM.

The conditions of series [13]: human gut metagenome, 24 h, 2 µM. The source holds these as a separate data set.
The nature of series [14]: The drug is tested on WLS-220 corresponding to human gut metagenome with ENA study accession number: PRJEB37062 and ENA sample accession number: ERS12561769 for biotransformation under anaerobic condition. The drug concentrations were measured over 9 timepoints collected between 0 and 24 hours of incubation by liquid-chromatography-coupled mass spectrometry (LC–MS). Conditions: 2 µM.

The conditions of series [15]: human gut metagenome, 24 h, 2 µM. The source holds these as a separate data set.
Series [16] is described as follows: The drug is tested on Z-016 corresponding to mouse gut metagenome with ENA study accession number: PRJEB37062 and ENA sample accession number: ERS12561815 for biotransformation under anaerobic condition. The drug concentrations were measured over 9 timepoints collected between 0 and 24 hours of incubation by liquid-chromatography-coupled mass spectrometry (LC–MS). Conditions: 2 µM.

The conditions of series [17]: human gut metagenome, 24 h, 2 µM. This is another data set of the same source.
The nature of series [18]: The drug is tested on WLS-082 corresponding to human gut metagenome with ENA study accession number: PRJEB37062 and ENA sample accession number: ERS12561751 for biotransformation under anaerobic condition. The drug concentrations were measured over 9 timepoints collected between 0 and 24 hours of incubation by liquid-chromatography-coupled mass spectrometry (LC–MS). Conditions: 2 µM.

The conditions of series [19]: human gut metagenome, 24 h, 2 µM. This is another data set of the same source.
For series [20] the following is noted: human gut metagenome, 24 h, 2 µM. The source holds these as a separate data set.
Also: call rule not given here.

For `CCOC(=O)[C@H](CCc1ccccc1)N[C@@H](C)C(=O)N1[C@H](C(=O)O)C[C@@H]2CCC[C@@H]21`, the “Bacterial Biotransformation” value in series [1] is “Compound metabolized”; in [2], “Compound NOT metabolized”; in series [3], “Compound metabolized”; in [4], “Compound metabolized”; in series [5] it was “Compound NOT metabolized”; in series [6], “Compound metabolized”. The “Bacterial Biotransformation” value in series [7] is listed as “Compound metabolized”; in [8], “Compound metabolized”; in series [9] it was “Compound NOT metabolized”; in [10], “Compound metabolized”; in series [11] it was “Compound metabolized”; in series [12] it was “Compound metabolized”. Also, the “Bacterial Biotransformation” value in series [13], in [14], in series [15], in series [16], in series [17] and in series [18] was “Compound metabolized” in each case. Besides, the “Bacterial Biotransformation” value in series [19] and in [20] was “Compound metabolized” each time.

With `CCN(CC)CCNC(C(=O)OCCC(C)C)c1ccccc1.Cl.Cl` (stereo not given), the “Bacterial Biotransformation” value in series [1] was “Compound metabolized”; in series [2], “Compound NOT metabolized”; in [3], “Compound metabolized”; in series [4], “Compound metabolized”; in series [5] it was “Compound NOT metabolized”; in series [6] it was “Compound metabolized”. Also, the “Bacterial Biotransformation” value in series [7] is “Compound metabolized”; in series [8], “Compound metabolized”; in [9], “Compound metabolized”; in [10] it was “Compound NOT metabolized”; in series [11], “Compound metabolized”; in [12], “Compound metabolized”. Also, the “Bacterial Biotransformation” value is listed as “Compound metabolized” in series [13]; “Compound NOT metabolized” in series [14]; “Compound metabolized” in [15]; “Compound NOT metabolized” in series [16]; “Compound metabolized” in series [17]; “Compound metabolized” in series [18]. The “Bacterial Biotransformation” value in [19] and in series [20] was “Compound metabolized” each time.

Consider `CCCC(=O)Nc1ccc(OCC(O)CNC(C)C)c(C(C)=O)c1` (stereo not given) [ACEBUTOLOL], for which the “Bacterial Biotransformation” value in series [1] is reported as “Compound metabolized”; in series [2], “Compound NOT metabolized”; in series [3], “Compound metabolized”; in [4], “Compound metabolized”; in series [5], “Compound NOT metabolized”; in series [6] it was “Compound NOT metabolized”. Further, the “Bacterial Biotransformation” value in series [7] is “Compound metabolized”; in [8], “Compound NOT metabolized”; in [9], “Compound NOT metabolized”; in [10], “Compound NOT metabolized”; in series [11] it was “Compound metabolized”; in [12] it was “Compound NOT metabolized”. The “Bacterial Biotransformation” value in series [13] was “Compound metabolized”; in [14], “Compound NOT metabolized”; in [15], “Compound metabolized”; in series [16] it was “Compound NOT metabolized”; in [17], “Compound NOT metabolized”; in [18], “Compound NOT metabolized”. The “Bacterial Biotransformation” value in series [19] and in [20] was “Compound metabolized” in each case.

Take `C=CCc1ccccc1OCC(O)CNC(C)C` (stereo not given) [ALPRENOLOL]: the “Bacterial Biotransformation” value in series [1] is “Compound metabolized”; in series [2], “Compound NOT metabolized”; in [3], “Compound metabolized”; in [4] it was “Compound NOT metabolized”; in series [5], “Compound NOT metabolized”; in [6], “Compound NOT metabolized”. The “Bacterial Biotransformation” value in series [7], in [8], in series [9], in series [10], in series [11] and in series [12] was “Compound NOT metabolized” throughout. For the same molecule, the “Bacterial Biotransformation” value in series [13] is recorded as “Compound NOT metabolized”; in [14], “Compound metabolized”; in series [15] it was “Compound metabolized”; in [16] it was “Compound NOT metabolized”; in [17], “Compound NOT metabolized”; in series [18], “Compound NOT metabolized”. The “Bacterial Biotransformation” value in series [19] and in series [20] was “Compound metabolized” each time.

On to `CC(C)c1c(C(=O)Nc2ccccc2)c(-c2ccccc2)c(-c2ccc(F)cc2)n1CC[C@@H](O)C[C@@H](O)CC(=O)O` [ATORVASTATIN], for which the “Bacterial Biotransformation” value in [1] is listed as “Compound NOT metabolized”; in [2], “Compound NOT metabolized”; in series [3], “Compound metabolized”; in series [4], “Compound metabolized”; in series [5], “Compound NOT metabolized”; in series [6] it was “Compound NOT metabolized”. Besides, the “Bacterial Biotransformation” value is listed as “Compound metabolized” in series [7]; “Compound NOT metabolized” in series [8]; “Compound NOT metabolized” in series [9]; “Compound metabolized” in series [10]; “Compound metabolized” in series [11]; “Compound NOT metabolized” in series [12]. Further, the “Bacterial Biotransformation” value was “Compound metabolized” in [13]; “Compound NOT metabolized” in series [14]; “Compound metabolized” in series [15]; “Compound NOT metabolized” in series [16]; “Compound metabolized” in series [17]; “Compound metabolized” in series [18]. Further, the “Bacterial Biotransformation” value in [19] and in series [20] was “Compound metabolized” throughout.

With `CCOC(=O)[C@H](CCc1ccccc1)N[C@H]1CCc2ccccc2N(CC(=O)O)C1=O` [BENAZEPRIL], the “Bacterial Biotransformation” value in series [1] was “Compound metabolized”; in series [2], “Compound NOT metabolized”; in [3], “Compound metabolized”; in series [4], “Compound metabolized”; in series [5], “Compound metabolized”; in [6], “Compound metabolized”. The “Bacterial Biotransformation” value in [7], in series [8], in [9], in series [10], in series [11] and in [12] was “Compound metabolized” in each case. Moreover, the “Bacterial Biotransformation” value in [13], in series [14], in series [15], in [16], in [17] and in series [18] was “Compound metabolized” throughout. For the same molecule, the “Bacterial Biotransformation” value in series [19] and in series [20] was “Compound metabolized” throughout.

(Values after ChEMBL document CHEMBL5724914, “Linking interpersonal differences in gut microbiota composition and drug biotransformation activity” (2024).)
